Broadly, the EC50 is the concentration giving half of the maximal effect. In general, IC50 refers to the concentration needed to halve the response being measured. Low values mean greater potency, high ones weaker potency.

We go through six compounds from article PMC10232738, “Five blueberry anthocyanins and their antioxidant, hypoglycemic, and hypolipidemic effects in vitro” (Frontiers in Nutrition, 2023).

Marks after values point to notes of the source that are not given here.

Experiment [1] can be described thus: DPPH radical scavenging assay. As to conditions: 30 min, 517 nm, mean ± SD (n = 3). The method, then: DPPH assay was determined according to the reported method ([10]). The tested compounds were dissolved in ethanol and diluted to a series of concentrations to be used as test solutions. A total of 100 μl 0.16 mmol/L DPPH in methanol (5 mg/100 ml) was mixed with 100 μl of the test solution. […] A blank sample containing 100 μl of methanol in the DPPH solution was measured. The same procedure was followed for the positive control, ascorbic acid. All samples were analyzed in triplicate at five different concentrations around the EC50 values.
(The DPPH test is a chemical assay of radical scavenging.)

Experiment [2] can be described thus: ABTS radical cation scavenging assay. As to conditions: 6 min, 734 nm, mean ± SD (n = 3). The method, then:
The ABTS assay was performed as the reported method ([10]). Briefly, ABTS^+ radical cation was prepared by mixing a 7 mM aqueous stock solution of ABTS^+ and 2.6 mM potassium peroxydisulfate. The reaction mixture was stored in the dark at room temperature for 12 h prior to use. […] Then, 50 μl of the test solution was added to 200 μl of the ABTS^+ radical cation solution. […] A blank sample containing ABTS^+ solution was measured.

The nature of experiment [3]: Oxygen radical absorbance capacity (ORAC) assay. As to conditions: Trolox equivalents, pH 7.4, mean ± SD (n = 3). The method, then: The oxygen radical absorbance capacity (ORAC) assay was performed according to the reported method with slight modifications ([11]). The assay was carried out in black-walled 96-well plates. Tested compounds were dissolved in 75 mM phosphate buffer (pH 7.4). […] A blank sample containing 20 μl of phosphate buffer in the reaction mix was prepared and measured. The area under the curve (AUC) was calculated for each sample by integrating the relative fluorescence curve. The net AUC of the sample was calculated by subtracting the AUC of the blank. The regression equation between net AUC and series concentration of Trolox was determined to establish a standard curve, and ORAC values were expressed as μmol Trolox equivalents/μmol samples using the standard curve established previously. All samples were analyzed in triplicate.

In experiment [4] the target is α-glucosidase. Description: α-glucosidase inhibitory activity assay (p-NPG substrate). The class given is biochemical, Saccharomyces cerevisiae. Conditions: pH 6.9, 37°C, mean ± SD (n = 3). The text has this:
Acetonitrile, methanol, and formic acid (HPLC grade) were obtained from Tedia Co. Inc. (Fairfield, OH, USA). Ethanol and phosphoric acid were purchased from Sinopharm Chemical Reagent Co. Ltd. (Shanghai, China). Folin-Ciocalteu's phenol reagent, 2,2-diphenyl-1-picrylhydrazyl (DPPH), 2,2′-azinobis-3-ethylbenzothiazoline-6-sulfonic acid (ABTS), α-glucosidase (from Saccharomyces cerevisiae), 4-nitrophenyl-α-D-glucose (p-NPG), and 6-hydroxy-2,5,7,8-tetramethylchroman-2-carboxylic acid (Trolox) were obtained from Sigma-Aldrich (St. Louis, MO, USA). Sodium fluorescein, 2,2′-azobis-2-amidino-propane (AAPH), metformin (Met), oleic acid (OA), and 2-[N-(7-Nitrobenz-2-oxa-1,3-diazol-4-yl)amino]-2-deoxy-D-glucose (2-NDBG) were obtained from Aladdin (Shanghai, China). The assay kits of triglycerides (TG), total cholesterol (TC), and oil-red-O staining were obtained from Jiancheng Bioengineering Institute (Nanjing, China). The BCA assay kit was obtained from Biosharp (Hefei, China). Dulbecco's modified Eagle's medium (DMEM), penicillin-streptomycin, and fetal bovine serum (FBS) were purchased from Invitrogen-Gibco (Grand Island, NY). The chemicals and reagents used in this study were all of pure analytical grade.
The α-glucosidase inhibitory activity was determined as previous methods with slight modifications ([12]). In short, the diluted sample working solution (1 μl) was added to 3 μl of α-glucosidase (0.5 U/ml in 0.1 M sodium phosphate buffer, pH 6.9) and 156 μl of 0.1 M sodium phosphate buffer (pH 6.9). Then, the mixture was incubated at 37°C for 20 min, and 40 μl of 1.5 mM p-NPG (dissolved in 100 mM sodium phosphate buffer, pH 6.9) was added and incubated for 20 min. Absorbance was measured by a microplate reader (Molecular Device, Sunnyvale, CA, USA). A complete reaction mixture without a sample was used as the control. Three parallel operations were performed. All the samples were analyzed in triplicate at five different concentrations around the IC50 values.

The subject of experiment [5] is HepG2 cells. The experiment can be described thus: 2-NBDG glucose uptake in HG-OA stimulated HepG2 cells. The class given is cell-based, Human. As to conditions: 12 h, HG-OA (36 mM glucose, 0.25 mM OA) treated HepG2, p < 0.001 vs model. The protocol:
(§1) HepG2 cells were starved in DMEM with 2% FBS for 9 h. To establish an in vitro model of diabesity, cells were stimulated with high glucose (36 mM glucose) and 0.25 mM OA for 12 h according to our previous study ([14]). Then, BB1-BB5 (50 and 100 μM) and Met (100 μM) were added for another 12 h. OA or BB1-BB5 was dissolved in DMSO and added to HepG2 cells in DMEM, and the final DMSO concentration received by the cells was 0.1% (v/v).
After the model was established, HepG2 cells were treated with BB1-BB5 (50 and 100 μM in low and high doses, respectively) for 12 h. 2-NBDG, a fluorescent deoxyglucose, was added to measure glucose uptake ([15]). The culture solution was discarded, and 2-NBDG (100 μM, diluted in DMEM without serum) was added and incubated again for 40 min. […] In total, eight parallels were set up for each sample.

Experiment [6] has as its system HepG2 cells. Description: Intracellular total cholesterol (TC) in HG-OA stimulated HepG2 cells. The class given is cell-based, Human. Conditions: 12 h, HG-OA treated HepG2, vs model group. The method, then: as §1
After the model was established, HepG2 cells were treated with BB1–BB5 (50 and 100 μM in low and high doses, respectively) in 6-well plates for 12 h. The culture solution was discarded, and 200 μl of RIPA lysis buffer was added after three washes with PBS and placed on a shaker for 10 min. The cell contents were homogenized and centrifuged (4°C, 10,000 rpm) to extract the supernatant. The TC and TG level in HepG2 cells were tested using the commercial kit by glycerol phosphate oxidase (GPO)-peroxidase (PAP) method based on several enzyme-driven reactions. The end product, hydrogen peroxide, which can be oxidatively coupled with 4-aminoantipyrine and phenol in the presence of peroxidase to yield a chromogen, was measured at 500 nm ([16]). In total, eight replicates were set for each sample.

As for `OCC1OC(Oc2cc3c(O)cc(O)cc3[o+]c2-c2cc(O)c(O)c(O)c2)C(O)C(O)C1O` (centres unmarked) [BB1, delphinidin-3-O-galactoside], the EC50 in experiment [1] came out at 39.91 ± 0.24 µM; in experiment [2], 19 ± 0.2 µM. Moreover, the ORAC in experiment [3] was 13.23 ± 0.03^a μmol Trolox/μmol. In experiment [4], this compound displayed an IC50 of 68.3 ± 12.4 µM.
For the compound `OC[C@H]1O[C@@H](Oc2cc3c(O)cc(O)cc3[o+]c2-c2cc(O)c(O)c(O)c2)[C@H](O)[C@@H](O)[C@@H]1O` [BB2, delphinidin-3-O-glucoside], the EC50 in experiment [1] was 61.4 ± 2.29 µM; in experiment [2] it was 20.7 ± 0.67 µM. Also, the ORAC in experiment [3] is reported as 9.44 ± 0.12^d μmol Trolox/μmol. Inhibition in experiment [4] was half-maximal at 240 ± 9.2 µM (IC50). In addition, the “Glucose uptake capacity (2-NBDG fluorescence)” value (from here on “Glucose uptake capacity”) in experiment [5] (100 μM) was “significant increase”.
With `COc1cc(-c2[o+]c3cc(O)cc(O)c3cc2OC2OC(CO)C(O)C(O)C2O)cc(O)c1O` (centres unmarked) [BB3, petunidin-3-O-galactoside], the EC50 in experiment [1] amounted to 63.2 ± 2 µM; in experiment [2], 24.2 ± 1.88 µM. Also, in experiment [3], the ORAC was 11.31 ± 0.22^c μmol Trolox/μmol. Further, the IC50 in experiment [4] is 68.5 ± 20.9 µM. For the same compound, the “Glucose uptake capacity” value in experiment [5] (50 μM) and in experiment [5] (100 μM) was “significant increase” each time. Further, in experiment [6] (100 μM), the “Intracellular TC levels” value is “noticeably reduced”.
With `COc1cc(-c2[o+]c3cc(O)cc(O)c3cc2O[C@@H]2O[C@H](CO)[C@@H](O)[C@H](O)[C@H]2O)cc(O)c1O` [BB4, petunidin-3-O-glucoside], the EC50 is 62.11 ± 0.27 µM in experiment [1] and 39.3 ± 1.55 µM in experiment [2]. Also, in experiment [3], the ORAC is 11.02 ± 0.16^c μmol Trolox/μmol. Moreover, the half-inhibitory concentration (IC50) in experiment [4] is 218 ± 22.7 µM. The “Glucose uptake capacity” value in experiment [5] (100 μM) is “significant increase”. In addition, the “Intracellular TC levels” value in experiment [6] (50 μM) and in experiment [6] (100 μM) was “noticeably reduced” throughout.
For `COc1cc(-c2[o+]c3cc(O)cc(O)c3cc2OC2OC(CO)C(O)C(O)C2O)cc(OC)c1O` (centres unmarked) [BB5, malvidin-3-O-galactoside], the figures for the EC50 in experiment [1] and in experiment [2] were 38.8 ± 3.33 µM and 14.3 ± 1 µM, respectively. Besides, the ORAC in experiment [3] is listed as 11.89 ± 0.13^b μmol Trolox/μmol. Moreover, the IC50 in experiment [4] turned out to be 185 ± 10.9 µM. Also, the “Glucose uptake capacity” value in experiment [5] (50 μM) and in experiment [5] (100 μM) was “significant increase” in each case. The “Intracellular TC levels” value in experiment [6] (100 μM) is given as “noticeably reduced”.
For the compound `O=C1O[C@H]([C@@H](O)CO)C(O)=C1O` [ascorbic acid, reference compound], the EC50 is 112 ± 15.3 µM in experiment [1] and 44.5 ± 0.55 µM in experiment [2].
